This experiment deals with enterotoxins. It counts as binding, Staphylococcus aureus.

This is an account of results in patent publication US6969616B2 (Kaneka Corporation, priority 2000, dated 2005).

Molecules are shown by their SMILES.

Regarding `CCCCCCCCN` [n-octylamine], the “adsorptive affinity for enterotoxins” value is listed as “phenomenal increase in the adsorptive affinity for enterotoxins”.
